For data set [1], the system named is Ozark conventional soybean. Particulars: for Soybean Injury (%) 10 DAT / Soybean Injury (%) 35 DAT: fungicide-only seed. The protocol:
A field experiment was conducted in the summer of 2014 near Newport, Ark. to evaluate the effect of a soybean insecticide seed treatment, Cruiser Maxx, on herbicide injury to convention soybean. The conventional soybean variety Ozark was planted on 7-17-14 in plots measuring 7.5×20 feet in size. In each plot, half the drill rows were treated with Cruiser Maxx at 7 oz/cwt, and the other half were treated with only the fungicide portion of that treatment. Seeding rate was 125,000 seeds per acre. Seed were planted to a depth of 0.5 inches. Soil temperature at the time of planting and application of the PRE treatments was 62 degrees F.
Post emerge treatments included Roundup PowerMax (2 and 4 oz/A), Liberty (2 and 4 oz/A), dicamba (0.25 and 0.5 oz/A), 2,4-D (0.75 and 1.5 oz/A) and Permit at 0.5 and 1.0 oz/A applied at the third trifoliate stage. Herbicides were applied with a 4 nozzle boom calibrated to deliver 15 GPA using CO2 as a propellant.
Plots were visually rated for herbicide injury at 10 days after emergence and at 35 days after application of the POST treatments. The rating scale was 0 to 100 where 0=no injury and 100=complete death or desiccation of the plant. Means were separated using Fisher's protected LSD (0.05).

For a further data set, the system named is cotton. The note with it: insecticide applied in-furrow; York et al. (1991); cited from earlier work.
Data set [2] has as its system conventional rice (Roy J). Type of data set: in vivo. The method, then:
This experiment was conducted at a farm located just north of Lonoke, Ark. in the summers of 2013 and 2014. The soil texture is a silt loam with a pH of 6.3. Conventional rice (Roy J) was planted on Apr. 30, 2013 and May 20, 2014 with a Hege cone drill calibrated to deliver a seeding rate of 90 pounds (lbs)/Acre on 7.5-inch rows. Plot size was 5×25 feet. The study was conducted with a randomized complete block design having 4 replications.
Treatments consisted of seed treatment and herbicide combinations. […] The second seed treatment was considered the “nontreated seed” which actually received equivalent amounts of azoxystrobin, mefenoxam and fludioxonil as the treated seed but without the insecticide thiamethoxam.
The herbicide treatments were applied at the 2-4 If growth stage of rice with a CO2 backpack sprayer calibrated to deliver 10 gallons of spray solution per acre. Herbicide treatments included Roundup PowerMax (5.5 lb ai/gallon formulation) applied at 0, 1, 2, and 4.0 oz product/A and Newpath 2AS (2 lb ai/gallon formulation) applied at 0, 0.25, 0.5 and 1.0 oz product/A. The plot area was maintained weed free with conventional rice herbicides and the rice was grown according to University of Arkansas recommendations for soil fertility.
Data collected included: percent visual injury at 7, 21, and 42 days after treatment (DAT) on a scale of 0 to 100 with 0 being no injury and 100 being complete crop death; canopy heights at 68 DAT using a yard stick and 1 meter square piece of cardboard, percent rice heading at 107 DAT, percent moisture, and grain yield at harvest. Data were analyzed and LSD's generated at the p=0.05 level of significance using ARM 9.1.4.

The mark [3] stands for this setting: POST at third trifoliate, averaged across two rates (Roundup PowerMax 2 and 4, dicamba 0.25 and 0.5, 2,4-D 0.75 and 1.5, Permit 0.5 and 1.0 oz/A), Treated soybean (Cruiser Maxx 7 oz/cwt).
Setting [4] is: POST at third trifoliate, averaged across two rates (Roundup PowerMax 2 and 4, dicamba 0.25 and 0.5, 2,4-D 0.75 and 1.5, Permit 0.5 and 1.0 oz/A).
Setting [5] is: PRE, (T) = Treated soybean (Cruiser Maxx 7 oz/cwt), Metribuzin 0.671 lb/A, Dual Magnum 2.0 pts/A, Zidua 3.5 oz/A, Valor 2.0 oz/A, mixes at same rates.
Setting [6] is: PRE, Metribuzin 0.671 lb/A, Dual Magnum 2.0 pts/A, Zidua 3.5 oz/A, Valor 2.0 oz/A, mixes at same rates.

Read-outs that look alike come from different tables or passages of the source.

With `O=C(O)COc1ccc(Cl)cc1Cl` [2,4-D], in data set [1] (setting [3]), the “Soybean Injury (%) 10 DAT (T)” value is recorded as 15% and the “Soybean Injury (%) 35 DAT (T)” value is 5%. In data set [1] (setting [4]), the “Soybean Injury (%) 10 DAT” value is 15% and the “Soybean Injury (%) 35 DAT” value turned out to be 5%.

As to `COc1c(Cl)ccc(Cl)c1C(=O)O` [Dicamba, dicamba], in data set [1] (setting [3]), the “Soybean Injury (%) 10 DAT (T)” value is given as 60% and the “Soybean Injury (%) 35 DAT (T)” value came out at 30%. Besides, in data set [1] (setting [4]), the “Soybean Injury (%) 10 DAT” value is 60% and the “Soybean Injury (%) 35 DAT” value was found to be 30%.

Regarding `CSc1nnc(C(C)(C)C)c(=O)n1N` [Metribuzin, metribuzin], in data set [1] (setting [5]), the “Soybean Injury (%) 10 DAT (T)” value worked out at 0% and the “Soybean Injury (%) 35 DAT (T)” value is recorded as 0%. In data set [1] (setting [6]), the “Soybean Injury (%) 10 DAT” value is listed as 0% and the “Soybean Injury (%) 35 DAT” value is recorded as 0%.

Turning to `CCOP(=S)(OCC)SCCSCC` [disulfoton], the “clomazone injury to cotton” value in the data set with cotton is reported as “greatly reduced”.

As to `CCOP(=S)(OCC)SCSCC` [phorate], the “clomazone injury to cotton” value in the data set with cotton is “greatly reduced”.

Consider `CN1COCN(Cc2cnc(Cl)s2)/C1=N\[N+](=O)[O-]` [thiamethoxam], for which the heading in data set [2] (107 DAT, all plots that received the insecticide in the seed treatment) is on record as 95-100%. Besides, in data set [2] (2013, Newpath at either 0.25 or 0.5 oz/A), the “yield higher for treated seed plots versus untreated or fungicide only plots” value came out at 100 bu/A. Also, in data set [2] (2013, Roundup 4.0 oz/A), the “yield improved by addition of a seed treatment that included the insecticide” value was “over 60 bushels”.

The values are drawn from patent publication US11219216B2, “Method of improving tolerance of plants to herbicides using seed insecticide treatments” (priority 2015, dated 2022).
